Results: patent US11945822B2, “Pyrazolo-triazine and/or pyrazolo-pxrimidine derivatives as selective inhibitor of cyclin dependent kinase” (QURIENT CO., LTD., priority 2018, dated 2024)

The compounds below were run against T1, CDK1/Cyclin B (Homo sapiens, UniProt P06493) (assay: Enzymatic assay for CDK1 (FRET based LANCE Ultra kinase assay)). Settings: read-out: CDK1 enzymatic activity (IC50 range).
T1 construct: purchased Invitrogen PR4768C
Type: biochemical
Summary of the method: (§1)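 TR-FRET (LANCE Ultra) kinase assay at ATP Km, ULight-MBP peptide substrate (68 nM), 8-dose 4-fold compound series in DMSO. Enzymes: […]; 60 min at 23° C., stopped with EDTA plus Eu-anti-phospho-MBP antibody, read 665/615 nm after 60 min.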

T1 sequence (P06493 whole entry): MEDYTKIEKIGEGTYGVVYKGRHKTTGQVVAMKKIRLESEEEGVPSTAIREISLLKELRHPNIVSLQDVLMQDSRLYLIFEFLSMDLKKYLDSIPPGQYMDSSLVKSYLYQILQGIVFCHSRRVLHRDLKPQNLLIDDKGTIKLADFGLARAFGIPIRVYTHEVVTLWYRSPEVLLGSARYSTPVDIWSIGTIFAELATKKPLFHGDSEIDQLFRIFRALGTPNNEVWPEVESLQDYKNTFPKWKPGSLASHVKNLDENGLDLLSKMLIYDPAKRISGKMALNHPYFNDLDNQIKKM
T1 sequence (P14635 whole entry partner): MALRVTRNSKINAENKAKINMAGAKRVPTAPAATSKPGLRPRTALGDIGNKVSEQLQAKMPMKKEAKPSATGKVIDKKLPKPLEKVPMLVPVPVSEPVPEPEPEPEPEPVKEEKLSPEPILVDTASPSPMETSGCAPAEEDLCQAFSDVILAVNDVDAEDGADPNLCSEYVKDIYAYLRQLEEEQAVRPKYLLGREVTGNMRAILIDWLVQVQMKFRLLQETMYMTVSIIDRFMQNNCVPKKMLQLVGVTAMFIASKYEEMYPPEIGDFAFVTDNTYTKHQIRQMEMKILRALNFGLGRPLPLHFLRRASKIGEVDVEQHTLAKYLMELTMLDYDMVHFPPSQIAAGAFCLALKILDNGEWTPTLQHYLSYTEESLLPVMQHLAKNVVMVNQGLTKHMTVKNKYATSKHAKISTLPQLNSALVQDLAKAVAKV

Row | IC50 [µM] | Compound
1 | 0.1 to 1 | CC(C)c1cnn2c(NCc3ccsc3-n3cccn3)nc(N3CCC(N)CC3)nc12 [Compound 62]
2 | > 1 | CC(C)c1cnn2c(NCc3ccccc3OCc3ccccc3)nc(N3CCC(N)CC3)nc12 [Compound 57]
3 | > 1 | CC(C)c1cnn2c(NCc3ccccc3-n3cccn3)cc(N3CCC(N)CC3)nc12 [Compound 1]
4 | > 1 | CC(C)c1cnn2c(NCc3ccccc3-n3cccn3)nc(-c3ccc(C(=O)N4CCC(N)CC4)cc3)nc12 [Compound 172]
5 | > 1 | Cc1ccc(-n2cccn2)cc1CNc1nc(N2CCC(N)CC2)nc2c(C(C)C)cnn12 [Compound 75]

Each compound was assayed against T2, CDK2/Cyclin A (Homo sapiens, UniProt P24941) (assay: Enzymatic assay for CDK2 (FRET based LANCE Ultra kinase assay)). Settings: read-out: CDK2 enzymatic activity (IC50 range).
T2 construct: purchased Invitrogen PV6290
Type: biochemical
Summary of the method: as §1

Row | IC50 [µM] | Compound
6 | 0.1 to 1 | CC(C)c1cnn2c(NCc3ccsc3-n3cccn3)nc(N3CCC(N)CC3)nc12 [Compound 62]
7 | > 1 | CC(C)c1cnn2c(NCc3ccccc3OCc3ccccc3)nc(N3CCC(N)CC3)nc12 [Compound 57]
8 | > 1 | CC(C)c1cnn2c(NCc3ccccc3-n3cccn3)cc(N3CCC(N)CC3)nc12 [Compound 1]
9 | 0.1 to 1 | CC(C)c1cnn2c(NCc3ccccc3-n3cccn3)nc(-c3ccc(C(=O)N4CCC(N)CC4)cc3)nc12 [Compound 172]
10 | > 1 | Cc1ccc(-n2cccn2)cc1CNc1nc(N2CCC(N)CC2)nc2c(C(C)C)cnn12 [Compound 75]

The compounds below were run against T3, CDK5/p25 (Homo sapiens, UniProt Q00535) (assay: Enzymatic assay for CDK5 (FRET based LANCE Ultra kinase assay)). Settings: read-out: CDK5 enzymatic activity (IC50 range).
T3 construct: purchased Invitrogen PR8543B
T3 sequence (Q00535 whole entry): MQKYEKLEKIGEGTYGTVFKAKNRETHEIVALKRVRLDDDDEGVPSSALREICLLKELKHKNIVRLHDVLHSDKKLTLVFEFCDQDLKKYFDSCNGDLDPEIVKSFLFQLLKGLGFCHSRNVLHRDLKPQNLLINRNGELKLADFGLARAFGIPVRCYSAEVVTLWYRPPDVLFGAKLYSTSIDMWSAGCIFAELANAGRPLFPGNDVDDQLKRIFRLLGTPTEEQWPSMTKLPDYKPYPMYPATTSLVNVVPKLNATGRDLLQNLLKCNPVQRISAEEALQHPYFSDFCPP
T3 sequence (Q15078 99-307 partner limits assumed): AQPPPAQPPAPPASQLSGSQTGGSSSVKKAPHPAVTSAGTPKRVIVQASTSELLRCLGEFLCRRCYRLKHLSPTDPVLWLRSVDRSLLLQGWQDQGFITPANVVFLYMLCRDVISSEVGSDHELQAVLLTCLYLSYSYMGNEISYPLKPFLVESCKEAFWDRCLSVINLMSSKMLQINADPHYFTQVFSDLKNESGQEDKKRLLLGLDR
Type: biochemical
Summary of the method: as §1

Row | IC50 [µM] | Compound
11 | < 0.1 | CC(C)c1cnn2c(NCc3ccsc3-n3cccn3)nc(N3CCC(N)CC3)nc12 [Compound 62]
12 | 0.1 to 1 | CC(C)c1cnn2c(NCc3ccccc3OCc3ccccc3)nc(N3CCC(N)CC3)nc12 [Compound 57]
13 | 0.1 to 1 | CC(C)c1cnn2c(NCc3ccccc3-n3cccn3)cc(N3CCC(N)CC3)nc12 [Compound 1]
14 | 0.1 to 1 | CC(C)c1cnn2c(NCc3ccccc3-n3cccn3)nc(-c3ccc(C(=O)N4CCC(N)CC4)cc3)nc12 [Compound 172]
15 | 0.1 to 1 | Cc1ccc(-n2cccn2)cc1CNc1nc(N2CCC(N)CC2)nc2c(C(C)C)cnn12 [Compound 75]

What follows are compounds tested against T4, CDK7/Cyclin H/MNAT1 (Homo sapiens, UniProt P50613) (assay: Enzymatic assay for CDK7 (FRET based LANCE Ultra kinase assay)). Settings: CDK7 over CDK1.
T4 construct: purchased Invitrogen PR6749B
T4 sequence (P50613 whole entry): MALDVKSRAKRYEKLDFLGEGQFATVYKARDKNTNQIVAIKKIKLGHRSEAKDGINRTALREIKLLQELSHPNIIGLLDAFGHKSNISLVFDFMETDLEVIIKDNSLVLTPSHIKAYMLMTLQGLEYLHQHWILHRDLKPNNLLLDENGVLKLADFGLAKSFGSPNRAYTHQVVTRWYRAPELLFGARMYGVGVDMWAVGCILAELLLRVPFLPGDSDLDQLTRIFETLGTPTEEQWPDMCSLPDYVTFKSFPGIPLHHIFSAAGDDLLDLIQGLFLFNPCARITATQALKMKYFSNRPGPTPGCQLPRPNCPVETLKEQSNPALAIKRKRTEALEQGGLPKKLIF
T4 sequence (P51946 whole entry partner): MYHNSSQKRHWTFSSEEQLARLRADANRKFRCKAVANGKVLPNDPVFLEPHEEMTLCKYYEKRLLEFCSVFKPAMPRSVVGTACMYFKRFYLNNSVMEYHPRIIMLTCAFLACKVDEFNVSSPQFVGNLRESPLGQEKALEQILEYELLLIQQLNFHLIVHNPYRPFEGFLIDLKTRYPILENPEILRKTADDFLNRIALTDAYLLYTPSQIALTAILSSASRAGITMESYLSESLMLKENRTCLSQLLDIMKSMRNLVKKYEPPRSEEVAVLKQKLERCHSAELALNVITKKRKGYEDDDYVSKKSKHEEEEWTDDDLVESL
T4 sequence (P51948 whole entry partner): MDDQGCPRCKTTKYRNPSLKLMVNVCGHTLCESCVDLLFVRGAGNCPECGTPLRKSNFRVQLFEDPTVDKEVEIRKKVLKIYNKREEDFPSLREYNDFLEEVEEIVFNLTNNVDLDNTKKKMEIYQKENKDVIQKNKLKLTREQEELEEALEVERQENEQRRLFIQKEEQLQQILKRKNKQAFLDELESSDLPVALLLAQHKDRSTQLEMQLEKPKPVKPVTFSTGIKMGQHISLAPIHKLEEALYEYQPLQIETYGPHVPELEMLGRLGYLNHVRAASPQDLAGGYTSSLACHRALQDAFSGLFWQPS
Type: biochemical
Summary of the method: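 LANCE Ultra TR-FRET kinase assay using a ULight-labeled peptide substrate and a Eu-labeled anti-phospho antibody, with ATP at its Km. Purified CDK/cyclin complex was added to compound after brief centrifugation.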

Row | CDK1/CDK7: Selectivity of CDK7 inhibition over CDK1 inhibition | Compound
16 | A (A=greater than 200 fold) | CC(C)c1cnn2c(NCc3ccccc3OCc3ccccc3)nc(N3CCC(N)CC3)nc12 [Compound 57]
17 | A (A=greater than 200 fold) | CC(C)c1cnn2c(NCc3ccccc3-n3cccn3)nc(-c3ccc(C(=O)N4CCC(N)CC4)cc3)nc12 [Compound 172]
18 | A (A=greater than 200 fold) | Cc1ccc(-n2cccn2)cc1CNc1nc(N2CCC(N)CC2)nc2c(C(C)C)cnn12 [Compound 75]

Row | Compound | CDK1/CDK7: Selectivity of CDK7 inhibition over CDK1 inhibition
19 | CC(C)c1cnn2c(NCc3ccsc3-n3cccn3)nc(N3CCC(N)CC3)nc12 [Compound 62] | B (B=less than 200 fold, but greater than 20 fold)
20 | CC(C)c1cnn2c(NCc3ccccc3-n3cccn3)cc(N3CCC(N)CC3)nc12 [Compound 1] | B (B=less than 200 fold, but greater than 20 fold)

Same assay, conditions: CDK7 over CDK2

Row | Compound | CDK2/CDK7: Selectivity of CDK7 inhibition over CDK2 inhibition
21 | CC(C)c1cnn2c(NCc3ccsc3-n3cccn3)nc(N3CCC(N)CC3)nc12 [Compound 62] | B (B=less than 200 fold, but greater than 20 fold)
22 | CC(C)c1cnn2c(NCc3ccccc3OCc3ccccc3)nc(N3CCC(N)CC3)nc12 [Compound 57] | A (A=greater than 200 fold)
23 | CC(C)c1cnn2c(NCc3ccccc3-n3cccn3)cc(N3CCC(N)CC3)nc12 [Compound 1] | B (B=less than 200 fold, but greater than 20 fold)
24 | CC(C)c1cnn2c(NCc3ccccc3-n3cccn3)nc(-c3ccc(C(=O)N4CCC(N)CC4)cc3)nc12 [Compound 172] | B (B=less than 200 fold, but greater than 20 fold)
25 | Cc1ccc(-n2cccn2)cc1CNc1nc(N2CCC(N)CC2)nc2c(C(C)C)cnn12 [Compound 75] | B (B=less than 200 fold, but greater than 20 fold)

Same assay, conditions: CDK7 over CDK5

Row | Compound | CDK5/CDK7: Selectivity of CDK7 inhibition over CDK5 inhibition
26 | CC(C)c1cnn2c(NCc3ccsc3-n3cccn3)nc(N3CCC(N)CC3)nc12 [Compound 62] | C (C=less than 20 fold)
27 | CC(C)c1cnn2c(NCc3ccccc3OCc3ccccc3)nc(N3CCC(N)CC3)nc12 [Compound 57] | B (B=less than 200 fold, but greater than 20 fold)
28 | CC(C)c1cnn2c(NCc3ccccc3-n3cccn3)cc(N3CCC(N)CC3)nc12 [Compound 1] | C (C=less than 20 fold)
29 | CC(C)c1cnn2c(NCc3ccccc3-n3cccn3)nc(-c3ccc(C(=O)N4CCC(N)CC4)cc3)nc12 [Compound 172] | B (B=less than 200 fold, but greater than 20 fold)
30 | Cc1ccc(-n2cccn2)cc1CNc1nc(N2CCC(N)CC2)nc2c(C(C)C)cnn12 [Compound 75] | B (B=less than 200 fold, but greater than 20 fold)

Same assay, conditions: read-out: CDK7 enzymatic activity (IC50 range)

Row | IC50 [µM] | Compound
31 | < 0.1 | CC(C)c1cnn2c(NCc3ccsc3-n3cccn3)nc(N3CCC(N)CC3)nc12 [Compound 62]
32 | < 0.1 | CC(C)c1cnn2c(NCc3ccccc3OCc3ccccc3)nc(N3CCC(N)CC3)nc12 [Compound 57]
33 | < 0.1 | CC(C)c1cnn2c(NCc3ccccc3-n3cccn3)cc(N3CCC(N)CC3)nc12 [Compound 1]
34 | < 0.1 | CC(C)c1cnn2c(NCc3ccccc3-n3cccn3)nc(-c3ccc(C(=O)N4CCC(N)CC4)cc3)nc12 [Compound 172]
35 | < 0.1 | Cc1ccc(-n2cccn2)cc1CNc1nc(N2CCC(N)CC2)nc2c(C(C)C)cnn12 [Compound 75]

The compounds below were run on HCT116 (assay: Cellular HCT116 viability assay (CellTiter-Glo, 72 hours)). Settings: Homo sapiens, HCT-116.
Type: cell-based
Summary of the method: (§2)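 Steps: seed cells at per-line density; add compound, DMSO vehicle kept under 0.1% final; incubate 72 h, 37 °C, 5% CO2; lyse with CellTiter-Glo and read luminescence; run in duplicate.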

Row | IC50 [µM] | Compound
36 | 1 to 10 | CC(C)c1cnn2c(NCc3ccccc3-n3cccn3)cc(N3CCC(N)CC3)nc12 [Compound 1]
37 | 1 to 10 | CC(C)c1cnn2c(NCc3ccccc3-n3cccn3)nc(-c3ccc(C(=O)N4CCC(N)CC4)cc3)nc12 [Compound 172]

The compounds below were run on H460 (assay: Cellular H460 viability assay (CellTiter-Glo, 72 hours)). Settings: Homo sapiens, NCI-H460.
Type: cell-based
Summary of the method: as §2

Row | IC50 [µM] | Compound
38 | < 1 | CC(C)c1cnn2c(NCc3ccsc3-n3cccn3)nc(N3CCC(N)CC3)nc12 [Compound 62]
39 | 1 to 10 | CC(C)c1cnn2c(NCc3ccccc3OCc3ccccc3)nc(N3CCC(N)CC3)nc12 [Compound 57]
40 | < 1 | CC(C)c1cnn2c(NCc3ccccc3-n3cccn3)cc(N3CCC(N)CC3)nc12 [Compound 1]
41 | 1 to 10 | CC(C)c1cnn2c(NCc3ccccc3-n3cccn3)nc(-c3ccc(C(=O)N4CCC(N)CC4)cc3)nc12 [Compound 172]
42 | 1 to 10 | Cc1ccc(-n2cccn2)cc1CNc1nc(N2CCC(N)CC2)nc2c(C(C)C)cnn12 [Compound 75]

What follows are compounds tested on MOLT-4 (assay: Cellular MOLT-4 viability assay (CellTiter-Glo, 72 hours)). Settings: Homo sapiens, MOLT4 viability assay.
Type: cell-based
Procedure: All cell lines were routinely tested for mycoplasma.
The effect of the CDK7 inhibitor to inhibit the growth of target cancer cells was evaluated through the 72 hours time period of viability assay. Briefly, the candidate cell line ware plated in 96 well plate at the following density of cells respectively. […] DMSO solvent without compound served as a control and final DMSO concentration less than 0.1%. After 72 hours of incubation at 37° C., 5% CO2 incubator, cells were analyzed for the viability using the CellTiter-Glo Luminescent Cell Viability Assay (Promega, Cat #G7570). All viability assays were performed in duplicate and Luminescence was read using an Envision (Perkin Elmer, USA). Data was analyzed using XLfit software.

Row | IC50 [µM] | Compound
43 | 1 to 10 | CC(C)c1cnn2c(NCc3ccsc3-n3cccn3)nc(N3CCC(N)CC3)nc12 [Compound 62]
44 | 1 to 10 | CC(C)c1cnn2c(NCc3ccccc3OCc3ccccc3)nc(N3CCC(N)CC3)nc12 [Compound 57]
45 | 1 to 10 | CC(C)c1cnn2c(NCc3ccccc3-n3cccn3)cc(N3CCC(N)CC3)nc12 [Compound 1]
46 | 1 to 10 | CC(C)c1cnn2c(NCc3ccccc3-n3cccn3)nc(-c3ccc(C(=O)N4CCC(N)CC4)cc3)nc12 [Compound 172]
47 | 1 to 10 | Cc1ccc(-n2cccn2)cc1CNc1nc(N2CCC(N)CC2)nc2c(C(C)C)cnn12 [Compound 75]
